Results: patent publication US6908909B2, “Liquid oral compositions comprising a calcium compound and an acidulant” (SmithKline Beecham plc, priority 1996, dated 2005)

Assay: In-vitro study of phosphorus liberated from teeth exposed to citric acid solutions
Details: for Mean amount Phosphorus liberated (μg) ± 1 SD: 0.3% citric acid
Procedure: To investigate the importance of calcium supplementation on exposure of enamel to citric acid solutions, five experiments were undertaken, each using eight teeth. The teeth were first subjected to prophylaxis, washed with saline and then covered in an acid resistant wax with the exception of a 5 mm diameter experimental window.
In each experiment the teeth were subjected to six consecutive 5 min exposures with 0.3% citric acid solutions at a flow rate of 0.1 ml/min. The citric acid solutions were supplemented with either 0.0, 0.5, 1.5, 2.5, 5.0, 7.5 10 or 15 mM calcium in the form of calcium hydroxide and the pH was adjusted to 3.5 or 3.8 using 1.0 M sodium hydroxide. Samples of residual citric acid were collected after every 5 min exposure of the teeth and these were frozen at −4° C., prior to phosphorus analysis by the method of Chen et al (1956) Analytical Chemistry, Vol.28, p1956-8.

Row | Structure (SMILES) | Mean amount Phosphorus liberated (μg) ± 1 SD (calcium 0.5 mM (mol ratio calcium:acid 0.03), pH 3.5) | Mean amount Phosphorus liberated (μg) ± 1 SD (calcium 0.5 mM (mol ratio calcium:acid 0.03), pH 3.8) | Mean amount Phosphorus liberated (μg) ± 1 SD (calcium 1.5 mM (mol ratio calcium:acid 0.10), pH 3.5) | Mean amount Phosphorus liberated (μg) ± 1 SD (calcium 1.5 mM (mol ratio calcium:acid 0.10), pH 3.8) | Mean amount Phosphorus liberated (μg) ± 1 SD (calcium 2.5 mM (mol ratio calcium:acid 0.17), pH 3.5) | Mean amount Phosphorus liberated (μg) ± 1 SD (calcium 2.5 mM (mol ratio calcium:acid 0.17), pH 3.8) | Mean amount Phosphorus liberated (μg) ± 1 SD (calcium 5 mM (mol ratio calcium:acid 0.35), pH 3.5) | Mean amount Phosphorus liberated (μg) ± 1 SD (calcium 5 mM (mol ratio calcium:acid 0.35), pH 3.8) | Mean amount Phosphorus liberated (μg) ± 1 SD (calcium 7.5 mM (mol ratio calcium:acid 0.52), pH 3.5) | Mean amount Phosphorus liberated (μg) ± 1 SD (calcium 7.5 mM (mol ratio calcium:acid 0.52), pH 3.8) | Mean amount Phosphorus liberated (μg) ± 1 SD (calcium 10 mM (mol ratio calcium:acid 0.70), pH 3.5) | Mean amount Phosphorus liberated (μg) ± 1 SD (calcium 10 mM (mol ratio calcium:acid 0.70), pH 3.8) | Mean amount Phosphorus liberated (μg) ± 1 SD (calcium 15 mM (mol ratio calcium:acid 1.05), pH 3.5) | Mean amount Phosphorus liberated (μg) ± 1 SD (calcium 15 mM (mol ratio calcium:acid 1.05), pH 3.8) | effect on erosive potential of a 0.3% citric acid solution (in words) (addition of calcium to 0.3% citric acid solution, effect greatest up to calcium to acid molar ratio of about 0.5) | Mean amount Phosphorus liberated (μg) ± 1 SD (calcium 0 mM (mol ratio calcium:acid 0.00), pH 3.5) | Mean amount Phosphorus liberated (μg) ± 1 SD (calcium 0 mM (mol ratio calcium:acid 0.00), pH 3.8)
1 | [Ca+2].[OH-].[OH-] [calcium, calcium hydroxide] | 1.25 ± 0.14 µg | 1.02 ± 0.09 µg | 1.07 ± 0.15 µg | 0.83 ± 0.12 µg | 1.22 ± 0.14 µg | 0.63 ± 0.13 µg | 0.79 ± 0.06 µg | 0.46 ± 0.13 µg | 0.72 ± 0.1 µg | 0.32 ± 0.10 µg | 0.46 ± 0.13 µg | 0.24 ± 0.11 µg | 0.3 ± 0.10 µg | 0.14 ± 0.07 µg | reduces its erosive potential |  | 
2 | O=C(O)CC(O)(CC(=O)O)C(=O)O [citric acid, reference compound] |  |  |  |  |  |  |  |  |  |  |  |  |  |  |  | 1.41 ± 0.11 µg | 1.26 ± 0.17 µg
